For the experiment, the target named is isolated activated GpIIb/IIIa receptor (Homo sapiens, UniProt P05106+P08514). Description: GpIIb/IIIa-Fibrinogen-ELISA (inhibition of fibrinogen binding to coated receptor). The following applies: inhibition of fibrinogen-GpIIb/IIIa interaction, O.D. at 405 nm. As for the experimental part: Microtitre plates are coated overnight with 2 μg/ml isolated activated GpIIb/IIIa receptor. After removing the unbound receptor by several washing steps, the surface of the plates is blocked with 1% casein and washed again. The test substance is added in the required concentrations and the plates are incubated for 10 minutes while shaking in a linear shaker. The natural ligand of the gpIIb/IIIa receptor, fibrinogen, is added. After 1 hour of incubation the unbound fibrinogen is removed by several washing steps and bound fibrinogen is detected by a peroxidase-conjugated anti-fibrinogen monoclonal antibody by measuring the O.D. at 405 nm in an ELISA-reader. Inhibition of fibrinogen-GpIIb/IIIa interaction results in a low O.D. An IC50 is calculated in relation to a concentration-effect curve.
The GpIIb/IIIa-Fibrinogen-ELISA is a modification of the assays described in the following literature:
Nachman, R. L. & Leung, L. L. K. (1982): Complex formation of platelet membrane glycoproteins IIb and IIIa with fibrinogen. J. Clin. Invest. 69:263-269. Wright, P. S. et al. (1993): An echistatin C-terminal peptide activated GpIIbIIIa binding to fibrinogen, fibronectin, vitronectin and collagen type I and type IV. Biochem. J. 293:263-276.

isolated activated GpIIb/IIIa receptor, sequence (P08514 32-887 limits assumed): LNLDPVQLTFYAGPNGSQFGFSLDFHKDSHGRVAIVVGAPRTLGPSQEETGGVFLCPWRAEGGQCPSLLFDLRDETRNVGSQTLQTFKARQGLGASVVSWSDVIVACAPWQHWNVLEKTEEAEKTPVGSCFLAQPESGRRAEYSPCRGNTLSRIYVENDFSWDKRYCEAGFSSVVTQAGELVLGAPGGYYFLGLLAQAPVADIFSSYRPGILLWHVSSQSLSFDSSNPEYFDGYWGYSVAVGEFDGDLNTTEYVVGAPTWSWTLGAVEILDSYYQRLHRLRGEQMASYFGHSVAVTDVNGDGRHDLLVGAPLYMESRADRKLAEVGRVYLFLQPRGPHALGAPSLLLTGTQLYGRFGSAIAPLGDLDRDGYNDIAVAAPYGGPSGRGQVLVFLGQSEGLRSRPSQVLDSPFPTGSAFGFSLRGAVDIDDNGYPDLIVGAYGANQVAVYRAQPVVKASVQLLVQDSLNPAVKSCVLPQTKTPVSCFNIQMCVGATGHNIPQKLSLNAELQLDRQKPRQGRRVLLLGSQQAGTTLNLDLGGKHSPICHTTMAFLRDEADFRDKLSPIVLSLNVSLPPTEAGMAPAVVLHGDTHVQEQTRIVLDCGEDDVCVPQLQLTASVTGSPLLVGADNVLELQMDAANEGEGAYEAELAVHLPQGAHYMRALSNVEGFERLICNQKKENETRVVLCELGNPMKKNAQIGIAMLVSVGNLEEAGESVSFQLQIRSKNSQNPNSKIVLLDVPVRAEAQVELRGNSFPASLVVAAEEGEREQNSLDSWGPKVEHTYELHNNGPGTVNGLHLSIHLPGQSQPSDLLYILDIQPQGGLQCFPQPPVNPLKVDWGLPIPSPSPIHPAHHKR
isolated activated GpIIb/IIIa receptor, sequence (P08514 891-1039 partner limits assumed): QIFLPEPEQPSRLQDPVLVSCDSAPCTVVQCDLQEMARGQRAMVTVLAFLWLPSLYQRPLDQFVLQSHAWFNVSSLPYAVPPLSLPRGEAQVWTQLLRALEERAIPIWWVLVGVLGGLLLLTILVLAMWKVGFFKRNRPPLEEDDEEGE
isolated activated GpIIb/IIIa receptor, sequence (P05106 27-788): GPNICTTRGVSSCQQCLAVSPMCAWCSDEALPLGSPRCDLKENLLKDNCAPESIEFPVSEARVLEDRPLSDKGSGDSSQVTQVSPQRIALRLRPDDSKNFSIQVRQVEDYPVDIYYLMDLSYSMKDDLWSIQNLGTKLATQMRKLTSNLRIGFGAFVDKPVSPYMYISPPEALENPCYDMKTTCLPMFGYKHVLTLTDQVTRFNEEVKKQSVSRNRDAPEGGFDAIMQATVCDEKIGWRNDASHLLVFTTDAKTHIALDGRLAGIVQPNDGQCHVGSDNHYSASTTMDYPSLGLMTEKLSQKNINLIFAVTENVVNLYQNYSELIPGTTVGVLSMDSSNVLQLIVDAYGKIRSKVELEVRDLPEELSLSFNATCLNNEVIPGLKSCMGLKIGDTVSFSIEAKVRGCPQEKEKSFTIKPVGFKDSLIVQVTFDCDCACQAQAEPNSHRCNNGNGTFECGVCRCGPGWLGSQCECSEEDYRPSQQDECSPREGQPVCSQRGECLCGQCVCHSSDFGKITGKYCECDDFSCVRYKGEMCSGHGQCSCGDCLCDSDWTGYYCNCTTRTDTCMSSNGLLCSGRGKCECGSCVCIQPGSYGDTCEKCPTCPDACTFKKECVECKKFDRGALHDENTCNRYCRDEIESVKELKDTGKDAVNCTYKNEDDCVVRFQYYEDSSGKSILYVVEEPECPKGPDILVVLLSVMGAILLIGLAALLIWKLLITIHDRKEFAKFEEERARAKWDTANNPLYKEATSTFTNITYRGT

`O=C(O)CC1CCC(CCN2CCN(c3ccncc3)CC2)CC1` (centres unmarked) [Example 4, {4-[2-(4-Pyridin-4-yl-piperazin-1-yl)-ethyl]-cyclohexyl} -acetic acid] gave an IC50 of 0.1 µM.
Take `O=C(O)CC1(O)CCC(N2CCN(c3ccncc3)CC2)CC1` (stereo not drawn) [cis-1-hydroxy-4-[4-(4-pyridyl)-piperazin-1-yl] -acetic acid]: the IC50 amounted to 2.5 µM.
